Test results reported in PubChem BioAssay (NCI).
“And” between values parts separate entries of the source, which are not always exact repeats. Identical values can stand only once.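 Values below derive from 48-hour exposures of cells grown in 96-well plates, with endpoints linearly interpolated between the two concentrations bracketing the appropriate inhibition level. Abbreviation: GI50, concentration required for 50% inhibition of growth. At the TGI there is no net growth.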

Columns and labels:
Experiment in all cases: DTP human tumour cell line panel, 48 h
SF-295 CNS = tested on: SF-295 CNS
RXF 393 renal = tested on: RXF 393 renal
MDA-MB-435 = tested on: MDA-MB-435
SF-539 CNS = tested on: SF-539 CNS
SNB-75 CNS = tested on: SNB-75 CNS
CCRF-CEM leukemia = tested on: CCRF-CEM leukemia
SK-MEL-2 melanoma = tested on: SK-MEL-2 melanoma
HL-60(TB) leukemia = tested on: HL-60(TB) leukemia
PC-3 prostate = tested on: PC-3 prostate
NCI/ADR-RES ovarian = tested on: NCI/ADR-RES ovarian
EKVX NSCLC = tested on: EKVX NSCLC
NCI-H522 lung = tested on: NCI-H522 lung
HCC-2998 colon = tested on: HCC-2998 colon
SK-MEL-28 melanoma = tested on: SK-MEL-28 melanoma
U251 CNS = tested on: U251 CNS
MDA-MB-231 breast = tested on: MDA-MB-231 breast
NCI-H460 lung = tested on: NCI-H460 lung
HOP-62 NSCLC = tested on: HOP-62 NSCLC
SR leukemia = tested on: SR leukemia
UO-31 renal = tested on: UO-31 renal
SF-268 CNS = tested on: SF-268 CNS
SNB-19 CNS = tested on: SNB-19 CNS
RPMI-8226 leukemia = tested on: RPMI-8226 leukemia
SK-OV-3 ovarian = tested on: SK-OV-3 ovarian
NCI-H23 lung = tested on: NCI-H23 lung
MOLT-4 leukemia = tested on: MOLT-4 leukemia
CAKI-1 renal = tested on: CAKI-1 renal
NCI-H226 lung = tested on: NCI-H226 lung
HOP-92 NSCLC = tested on: HOP-92 NSCLC
IGROV1 ovarian = tested on: IGROV1 ovarian
HT29 colon = tested on: HT29 colon
SK-MEL-5 melanoma = tested on: SK-MEL-5 melanoma
COLO 205 colon = tested on: COLO 205 colon
TK-10 renal = tested on: TK-10 renal
HCT-15 colon = tested on: HCT-15 colon
HCT-116 colon = tested on: HCT-116 colon
UACC-62 melanoma = tested on: UACC-62 melanoma
MCF7 breast = tested on: MCF7 breast
OVCAR-5 ovarian = tested on: OVCAR-5 ovarian
OVCAR-4 ovarian = tested on: OVCAR-4 ovarian
UACC-257 melanoma = tested on: UACC-257 melanoma
OVCAR-3 ovarian = tested on: OVCAR-3 ovarian
SN12C renal = tested on: SN12C renal
KM12 colon = tested on: KM12 colon
BT-549 breast = tested on: BT-549 breast
OVCAR-8 ovarian = tested on: OVCAR-8 ovarian
786-0 renal = tested on: 786-0 renal
MALME-3M melanoma = tested on: MALME-3M melanoma
SW-620 colon = tested on: SW-620 colon
HS 578T breast = tested on: HS 578T breast
A498 renal = tested on: A498 renal
K-562 leukemia = tested on: K-562 leukemia
A549 NSCLC = tested on: A549 NSCLC
ACHN renal = tested on: ACHN renal
M14 melanoma = tested on: M14 melanoma
DU-145 prostate = tested on: DU-145 prostate
T-47D breast = tested on: T-47D breast
LOX IMVI melanoma = tested on: LOX IMVI melanoma

SMILES: Oc1nc(NCCc2ccccc2)sc1/C=C1\C=Nc2ncccc21
- GI50 (SF-295 CNS): 3.32 µM and 3.14 µM
- TGI (SF-295 CNS): 13.2 µM and 23.6 µM
- GI50 (RXF 393 renal): 1.91 µM and 2.53 µM
- TGI (RXF 393 renal): 4.08 µM and 5.72 µM
- GI50 (MDA-MB-435): 2.41 µM and 2.83 µM
- TGI (MDA-MB-435): 8.54 µM and 12.2 µM
- GI50 (SF-539 CNS): 1.32 µM and 1.47 µM
- TGI (SF-539 CNS): 3.82 µM and 3.65 µM
- GI50 (SNB-75 CNS): 1.81 µM and 1.8 µM
- TGI (SNB-75 CNS): 4.11 µM and 4.29 µM
- GI50 (CCRF-CEM leukemia): 3.31 µM and 2.42 µM
- TGI (CCRF-CEM leukemia): 13.9 µM and 7.8 µM
- GI50 (SK-MEL-2 melanoma): 2.4 µM and 2.94 µM
- TGI (SK-MEL-2 melanoma): 6.65 µM and 9.08 µM
- GI50 (HL-60(TB) leukemia): 2.34 µM and 2.14 µM
- TGI (HL-60(TB) leukemia): 6.48 µM and 6.88 µM
- GI50 (PC-3 prostate): 3.27 µM and 3.87 µM
- TGI (PC-3 prostate): 12.2 µM and 19 µM
- GI50 (NCI/ADR-RES ovarian): 12.2 µM and 8.3 µM
- TGI (NCI/ADR-RES ovarian): 50 µM and > 100 µM
- GI50 (EKVX NSCLC): 3.18 µM and 3.52 µM
- TGI (EKVX NSCLC): 29.6 µM and 26.9 µM
- GI50 (NCI-H522 lung): 1.43 µM and 1.39 µM
- TGI (NCI-H522 lung): 12.1 µM and 11.6 µM
- GI50 (HCC-2998 colon): 3.6 µM and 6.06 µM
- TGI (HCC-2998 colon): 13.2 µM and 24.3 µM
- GI50 (SK-MEL-28 melanoma): 2.83 µM and 2.52 µM
- TGI (SK-MEL-28 melanoma): 13.6 µM and 7.58 µM
- GI50 (U251 CNS): 2.29 µM and 3.26 µM
- TGI (U251 CNS): 7.89 µM and 11.5 µM
- GI50 (MDA-MB-231 breast): 3.05 µM and 3.74 µM
- TGI (MDA-MB-231 breast): 9.27 µM and 21.6 µM
- GI50 (NCI-H460 lung): 3.01 µM and 3.16 µM
- TGI (NCI-H460 lung): 10.2 µM and 13.6 µM
- GI50 (HOP-62 NSCLC): 2.47 µM and 3.43 µM
- TGI (HOP-62 NSCLC): 7.86 µM and 9.47 µM
- GI50 (SR leukemia): 0.397 µM and 0.554 µM
- TGI (SR leukemia): 17.7 µM and 7.79 µM
- GI50 (UO-31 renal): 3.53 µM and 3.83 µM
- TGI (UO-31 renal): 12.4 µM and 84.6 µM
- GI50 (SF-268 CNS): 2.72 µM and 2.63 µM
- TGI (SF-268 CNS): 9.07 µM and 8.87 µM
- GI50 (SNB-19 CNS): 2.47 µM and 2.82 µM
- TGI (SNB-19 CNS): 11.2 µM and 18.7 µM
- GI50 (RPMI-8226 leukemia): 3.21 µM and 2.99 µM
- TGI (RPMI-8226 leukemia): 12.5 µM and 16.1 µM
- GI50 (SK-OV-3 ovarian): 2.08 µM and 2.77 µM
- TGI (SK-OV-3 ovarian): 15.2 µM and 9.07 µM
- GI50 (NCI-H23 lung): 1.62 µM and 2.4 µM
- TGI (NCI-H23 lung): 5.72 µM and 8.12 µM
- GI50 (MOLT-4 leukemia): 3.17 µM and 2.77 µM
- TGI (MOLT-4 leukemia): 11.6 µM and 11 µM
- GI50 (CAKI-1 renal): 2.61 µM and 5.34 µM
- TGI (CAKI-1 renal): 14 µM and > 100 µM
- GI50 (NCI-H226 lung): 2.99 µM and 3.27 µM
- TGI (NCI-H226 lung): 14.3 µM and 16.1 µM
- GI50 (HOP-92 NSCLC): 1.3 µM and 1.43 µM
- TGI (HOP-92 NSCLC): 8.82 µM and 7.62 µM
- GI50 (IGROV1 ovarian): 2.51 µM and 3.03 µM
- TGI (IGROV1 ovarian): 18 µM and 50.4 µM
- GI50 (HT29 colon): 2.8 µM and 4 µM
- TGI (HT29 colon): 11.4 µM and 26.7 µM
- GI50 (SK-MEL-5 melanoma): 2.45 µM and 2.83 µM
- TGI (SK-MEL-5 melanoma): 6.67 µM and 7.88 µM
- GI50 (COLO 205 colon): 1.93 µM and 2.96 µM
- TGI (COLO 205 colon): 5.95 µM and 11 µM
- GI50 (TK-10 renal): 3.59 µM and 3.04 µM
- TGI (TK-10 renal): 15.5 µM and 17.7 µM
- GI50 (HCT-15 colon): 2.63 µM and 3.15 µM
- TGI (HCT-15 colon): 13.9 µM and 33.5 µM
- GI50 (HCT-116 colon): 1.03 µM and 1.23 µM
- TGI (HCT-116 colon): 11.1 µM and 6.5 µM
- GI50 (UACC-62 melanoma): 2.38 µM and 2.93 µM
- TGI (UACC-62 melanoma): 8.56 µM and 8.7 µM
- GI50 (MCF7 breast): 2.79 µM and 2.95 µM
- TGI (MCF7 breast): 11.3 µM and 11.5 µM
- GI50 (OVCAR-5 ovarian): 2.94 µM and 2.93 µM
- TGI (OVCAR-5 ovarian): 27.8 µM and 16.9 µM
- GI50 (OVCAR-4 ovarian): 2.95 µM and 3.69 µM
- TGI (OVCAR-4 ovarian): 11.7 µM and 18.7 µM
- GI50 (UACC-257 melanoma): 3.49 µM and 3.36 µM
- TGI (UACC-257 melanoma): 8.68 µM and 8.42 µM
- GI50 (OVCAR-3 ovarian): 2.16 µM and 2.06 µM
- TGI (OVCAR-3 ovarian): 9.39 µM and 7.33 µM
- GI50 (SN12C renal): 2.63 µM and 3.92 µM
- TGI (SN12C renal): 12.9 µM and 74.1 µM
- GI50 (KM12 colon): 2.69 µM and 2.71 µM
- TGI (KM12 colon): 9.91 µM and 13 µM
- GI50 (BT-549 breast): 1.23 µM and 1.35 µM
- TGI (BT-549 breast): 3.26 µM and 3.34 µM
- GI50 (OVCAR-8 ovarian): 2.91 µM and 3.12 µM
- TGI (OVCAR-8 ovarian): 13.4 µM and 14.8 µM
- GI50 (786-0 renal): 3.03 µM and 3.02 µM
- TGI (786-0 renal): 11.2 µM and 9.85 µM
- GI50 (MALME-3M melanoma): 3.28 µM
- TGI (MALME-3M melanoma): 8.93 µM
- GI50 (SW-620 colon): 1.92 µM and 2.37 µM
- TGI (SW-620 colon): 8.09 µM and 11.9 µM
- GI50 (HS 578T breast): 2.55 µM and 3.19 µM
- TGI (HS 578T breast): 7.44 µM and 9.51 µM
- GI50 (A498 renal): 1.95 µM and 1.84 µM
- TGI (A498 renal): 4.19 µM and 4.45 µM
- GI50 (K-562 leukemia): 4.12 µM and 4.7 µM
- TGI (K-562 leukemia): 20 µM and 79.6 µM
- GI50 (A549 NSCLC): 3.18 µM and 3.67 µM
- TGI (A549 NSCLC): 12.5 µM and 14.6 µM
- GI50 (ACHN renal): 2.45 µM and 2.7 µM
- TGI (ACHN renal): 19.1 µM and 10.8 µM
- GI50 (M14 melanoma): 3.72 µM and 3.49 µM
- TGI (M14 melanoma): 12.5 µM and 10.4 µM
- GI50 (DU-145 prostate): 2.96 µM and 3.09 µM
- TGI (DU-145 prostate): 12.8 µM and 16.5 µM
- GI50 (T-47D breast): 2.15 µM and 3.22 µM
- TGI (T-47D breast): 9.09 µM and 8.2 µM
- GI50 (LOX IMVI melanoma): 2.36 µM and 2.61 µM
- TGI (LOX IMVI melanoma): 10.6 µM and 9.37 µM
